Experimental data as given in patent US12435044B2, “Pyridazinone herbicides and pyridazinone intermediates used to prepare a herbicide” (FMC Corporation, priority 2018, dated 2025).

Key:
Experiment in all cases: Test C pre-/postemergence greenhouse test
Assay type in all cases: in vivo
Conditions in all cases: scale 0 to 100
[1] = system: windgrass (Apera spica-venti)
How it was run: (§1)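 Test chemicals were formulated in a non-phytotoxic solvent mixture with surfactant and applied preemergence to seeds in silt loam soil or postemergence to plants of 2 to 18 cm in a peat/vermiculite medium. After 13 to 21 d in a greenhouse, response was visually scored from 0 (no effect) to 100 (complete control).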

[2] = system: surinam grass (Brachiaria decumbens)
How it was run: as §1

[3] = system: nutsedge, yellow (Cyperus esculentus)
How it was run: as §1

corn (Zea mays) = system: corn (Zea mays)
How it was run: as §1

[4] = system: oilseed rape (Brassica napus)
How it was run: as §1

[5] = system: johnsongrass (Sorghum halepense)
How it was run: as §1

[6] = system: wheat, winter (winter wheat, Triticum aestivum)
How it was run: as §1

[7] = system: velvetleaf (Abutilon theophrasti)
How it was run: as §1

[8] = system: crabgrass, large (Digitaria sanguinalis)
How it was run: as §1

[9] = system: ryegrass, Italian (Lolium multiflorum)
How it was run: as §1

[10] = system: ragweed (common ragweed, Ambrosia elatior)
How it was run: as §1

[11] = system: poinsettia, wild (Euphorbia heterophylla)
How it was run: as §1

[12] = system: barnyardgrass (Echinochloa crus-galli)
How it was run: as §1

Compound: Cc1cc(Cl)c2ccccc2c1-c1c(O)c(Cl)nn(C)c1=O [Cpd. No. 65]
- Plant response rating, Windgrass ([1]; Postemergence, 16 g ai/ha): 90
- Plant response rating, Windgrass ([1]; Postemergence, 31 g ai/ha): 90
- Plant response rating, Windgrass ([1]; Postemergence, 62 g ai/ha): 95
- Plant response rating, Windgrass ([1]; Postemergence, 125 g ai/ha): 95
- Plant response rating, Windgrass ([1]; Preemergence, 31 g ai/ha): 80
- Plant response rating, Windgrass ([1]; Preemergence, 61 g ai/ha): 50
- Plant response rating, Windgrass ([1]; Preemergence, 62 g ai/ha): 95
- Plant response rating, Windgrass ([1]; Preemergence, 125 g ai/ha): 100
- Plant response rating, Surinam Grass ([2]; Postemergence, 16 g ai/ha): 90
- Plant response rating, Surinam Grass ([2]; Postemergence, 31 g ai/ha): 90
- Plant response rating, Surinam Grass ([2]; Postemergence, 62 g ai/ha): 95
- Plant response rating, Surinam Grass ([2]; Postemergence, 125 g ai/ha): 95
- Plant response rating, Surinam Grass ([2]; Preemergence, 31 g ai/ha): 55
- Plant response rating, Surinam Grass ([2]; Preemergence, 61 g ai/ha): 15
- Plant response rating, Surinam Grass ([2]; Preemergence, 62 g ai/ha): 70
- Plant response rating, Surinam Grass ([2]; Preemergence, 125 g ai/ha): 100
- Plant response rating, Nutsedge, Yellow ([3]; Postemergence, 16 g ai/ha): 50
- Plant response rating, Nutsedge, Yellow ([3]; Postemergence, 31 g ai/ha): 75
- Plant response rating, Nutsedge, Yellow ([3]; Postemergence, 62 g ai/ha): 65
- Plant response rating, Nutsedge, Yellow ([3]; Postemergence, 125 g ai/ha): 95
- Plant response rating, Nutsedge, Yellow ([3]; Preemergence, 31 g ai/ha): 75
- Plant response rating, Nutsedge, Yellow ([3]; Preemergence, 61 g ai/ha): 10
- Plant response rating, Nutsedge, Yellow ([3]; Preemergence, 62 g ai/ha): 75
- Plant response rating, Nutsedge, Yellow ([3]; Preemergence, 125 g ai/ha): 95
- Plant response rating, Corn (corn (Zea mays); Postemergence, 16 g ai/ha): 30
- Plant response rating, Corn (corn (Zea mays); Postemergence, 31 g ai/ha): 40
- Plant response rating, Corn (corn (Zea mays); Postemergence, 62 g ai/ha): 65
- Plant response rating, Corn (corn (Zea mays); Postemergence, 125 g ai/ha): 75
- Plant response rating, Corn (corn (Zea mays); Preemergence, 31 g ai/ha): 0
- Plant response rating, Corn (corn (Zea mays); Preemergence, 61 g ai/ha): 0
- Plant response rating, Corn (corn (Zea mays); Preemergence, 62 g ai/ha): 5
- Plant response rating, Corn (corn (Zea mays); Preemergence, 125 g ai/ha): 15
- Plant response rating, Oilseed Rape ([4]; Postemergence, 16 g ai/ha): 95
- Plant response rating, Oilseed Rape ([4]; Postemergence, 31 g ai/ha): 100
- Plant response rating, Oilseed Rape ([4]; Postemergence, 62 g ai/ha): 100
- Plant response rating, Oilseed Rape ([4]; Postemergence, 125 g ai/ha): 100
- Plant response rating, Oilseed Rape ([4]; Preemergence, 31 g ai/ha): 5
- Plant response rating, Oilseed Rape ([4]; Preemergence, 61 g ai/ha): 5
- Plant response rating, Oilseed Rape ([4]; Preemergence, 62 g ai/ha): 98
- Plant response rating, Oilseed Rape ([4]; Preemergence, 125 g ai/ha): 100
- Plant response rating, Johnsongrass ([5]; Postemergence, 16 g ai/ha): 20
- Plant response rating, Johnsongrass ([5]; Postemergence, 31 g ai/ha): 40
- Plant response rating, Johnsongrass ([5]; Postemergence, 62 g ai/ha): 75
- Plant response rating, Johnsongrass ([5]; Postemergence, 125 g ai/ha): 85
- Plant response rating, Johnsongrass ([5]; Preemergence, 31 g ai/ha): 5
- Plant response rating, Johnsongrass ([5]; Preemergence, 61 g ai/ha): 0
- Plant response rating, Johnsongrass ([5]; Preemergence, 62 g ai/ha): 5
- Plant response rating, Johnsongrass ([5]; Preemergence, 125 g ai/ha): 20
- Plant response rating, Wheat ([6]; Postemergence, 16 g ai/ha): 90
- Plant response rating, Wheat ([6]; Postemergence, 31 g ai/ha): 95
- Plant response rating, Wheat ([6]; Postemergence, 62 g ai/ha): 95
- Plant response rating, Wheat ([6]; Postemergence, 125 g ai/ha): 95
- Plant response rating, Wheat ([6]; Preemergence, 31 g ai/ha): 60
- Plant response rating, Wheat ([6]; Preemergence, 61 g ai/ha): 30
- Plant response rating, Wheat ([6]; Preemergence, 62 g ai/ha): 80
- Plant response rating, Wheat ([6]; Preemergence, 125 g ai/ha): 90
- Plant response rating, Velvetleaf ([7]; Postemergence, 16 g ai/ha): 40
- Plant response rating, Velvetleaf ([7]; Postemergence, 31 g ai/ha): 85
- Plant response rating, Velvetleaf ([7]; Postemergence, 62 g ai/ha): 100
- Plant response rating, Velvetleaf ([7]; Postemergence, 125 g ai/ha): 100
- Plant response rating, Velvetleaf ([7]; Preemergence, 31 g ai/ha): 60
- Plant response rating, Velvetleaf ([7]; Preemergence, 61 g ai/ha): 40
- Plant response rating, Velvetleaf ([7]; Preemergence, 62 g ai/ha): 75
- Plant response rating, Velvetleaf ([7]; Preemergence, 125 g ai/ha): 100
- Plant response rating, Crabgrass, Large ([8]; Postemergence, 16 g ai/ha): 30
- Plant response rating, Crabgrass, Large ([8]; Postemergence, 31 g ai/ha): 40
- Plant response rating, Crabgrass, Large ([8]; Postemergence, 62 g ai/ha): 40
- Plant response rating, Crabgrass, Large ([8]; Postemergence, 125 g ai/ha): 70
- Plant response rating, Crabgrass, Large ([8]; Preemergence, 31 g ai/ha): 0
- Plant response rating, Crabgrass, Large ([8]; Preemergence, 61 g ai/ha): 0
- Plant response rating, Crabgrass, Large ([8]; Preemergence, 62 g ai/ha): 60
- Plant response rating, Crabgrass, Large ([8]; Preemergence, 125 g ai/ha): 65
- Plant response rating, Ryegrass, Italian ([9]; Postemergence, 16 g ai/ha): 85
- Plant response rating, Ryegrass, Italian ([9]; Postemergence, 31 g ai/ha): 95
- Plant response rating, Ryegrass, Italian ([9]; Postemergence, 62 g ai/ha): 95
- Plant response rating, Ryegrass, Italian ([9]; Postemergence, 125 g ai/ha): 95
- Plant response rating, Ryegrass, Italian ([9]; Preemergence, 31 g ai/ha): 70
- Plant response rating, Ryegrass, Italian ([9]; Preemergence, 61 g ai/ha): 40
- Plant response rating, Ryegrass, Italian ([9]; Preemergence, 62 g ai/ha): 95
- Plant response rating, Ryegrass, Italian ([9]; Preemergence, 125 g ai/ha): 95
- Plant response rating, Ragweed ([10]; Postemergence, 16 g ai/ha): 98
- Plant response rating, Ragweed ([10]; Postemergence, 31 g ai/ha): 100
- Plant response rating, Ragweed ([10]; Postemergence, 62 g ai/ha): 98
- Plant response rating, Ragweed ([10]; Postemergence, 125 g ai/ha): 98
- Plant response rating, Ragweed ([10]; Preemergence, 31 g ai/ha): 95
- Plant response rating, Ragweed ([10]; Preemergence, 61 g ai/ha): 65
- Plant response rating, Ragweed ([10]; Preemergence, 62 g ai/ha): 98
- Plant response rating, Ragweed ([10]; Preemergence, 125 g ai/ha): 100
- Plant response rating, Poinsettia, Wild ([11]; Postemergence, 16 g ai/ha): 70
- Plant response rating, Poinsettia, Wild ([11]; Postemergence, 31 g ai/ha): 95
- Plant response rating, Poinsettia, Wild ([11]; Postemergence, 62 g ai/ha): 80
- Plant response rating, Poinsettia, Wild ([11]; Postemergence, 125 g ai/ha): 100
- Plant response rating, Poinsettia, Wild ([11]; Preemergence, 31 g ai/ha): 35
- Plant response rating, Poinsettia, Wild ([11]; Preemergence, 61 g ai/ha): 25
- Plant response rating, Poinsettia, Wild ([11]; Preemergence, 62 g ai/ha): 70
- Plant response rating, Poinsettia, Wild ([11]; Preemergence, 125 g ai/ha): 100
- Plant response rating, Barnyardgrass ([12]; Postemergence, 16 g ai/ha): 80
- Plant response rating, Barnyardgrass ([12]; Postemergence, 31 g ai/ha): 85
- Plant response rating, Barnyardgrass ([12]; Postemergence, 62 g ai/ha): 100
- Plant response rating, Barnyardgrass ([12]; Postemergence, 125 g ai/ha): 100
- Plant response rating, Barnyardgrass ([12]; Preemergence, 31 g ai/ha): 20
- Plant response rating, Barnyardgrass ([12]; Preemergence, 61 g ai/ha): 10
- Plant response rating, Barnyardgrass ([12]; Preemergence, 62 g ai/ha): 60
- Plant response rating, Barnyardgrass ([12]; Preemergence, 125 g ai/ha): 75
